Experimental findings from patent US20250154179A1, “GOLD (I) GEFITINIB DERIVATIVES AND PREPARATION METHOD AND APPLICATION THEREOF” (TONGJI HOSPITAL, TONGJI MEDICAL COLLEGE, HUAZHONG …, priority 2023, published 2025) are described below.

In assay [1] the test system is Gefitinib-resistant lung cancer cells. Put plainly: mitochondrial damage, oxidative stress and ferroptosis in resistant cells. Type of assay: cell-based. The protocol: (§1) The present invention further provides an application of a gold (I) Gefitinib derivative, mainly providing the study of the effect of Embodiment 8 (L1Au2 for short). […] L1Au2 is mainly used to treat lung cancer resistant to first- and second-generation EGFR-TKI. In vitro experiments on L1Au2 were conducted against Gefitinib-sensitive and Gefitinib-resistant lung cancer. […] The cell lines used in the experiment are internationally universal lung cancer tumor cell lines: Gefitinib-sensitive lung cancer cell line PC9, and Gefitinib-resistant cell lines PC9GR and H1975. […] See FIG. 3 for the effect diagram of a specific product.

The subject of assay [2] is lung cancer cells. The experiment in a line: Annexin V-FITC/PI double staining apoptosis assay. The assay is classed as cell-based. The protocol:
as §1

Assay [3] relates to lung cancer cells. The experiment in a line: Transwell migration experiment. Type of assay: cell-based. As for the experimental part: as §1
The target in the next assay is T1, GPX4 protein (Homo sapiens, UniProt P36969).
T1 construct: endogenous in cells; host or cells: Gefitinib-resistant lung cancer cells (PC9GR / H1975; not specified which)
T1 sequence (P36969 1-197): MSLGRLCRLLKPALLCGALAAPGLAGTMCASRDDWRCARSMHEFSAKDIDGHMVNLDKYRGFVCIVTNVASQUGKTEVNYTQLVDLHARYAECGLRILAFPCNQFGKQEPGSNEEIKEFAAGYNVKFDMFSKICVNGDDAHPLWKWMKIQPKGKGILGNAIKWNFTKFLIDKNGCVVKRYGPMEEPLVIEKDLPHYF
The experiment in a line: GPX4 protein degradation. Type of assay: cell-based. The note with it: by promoting autophagy and inducing GPX4 ubiquitination. As for the experimental part:
as §1

Assay [4] deals with lung cancer cell lines PC9, PC9GR and H1975. Put plainly: plate cloning (colony formation) experiment. Type of assay: cell-based. As for the experimental part:
as §1

A further assay has as its system EGFR-related pathway. Put plainly: EGFR-related pathway activation. The assay is classed as cell-based. As for the experimental part: as §1
Another assay relates to thioredoxin reductase. Put plainly: thioredoxin reductase activity. The assay is classed as biochemical. As for the experimental part:
as §1

The test system of assay [5] is drug-resistant subcutaneous tumors. Put plainly: subcutaneous drug-resistant tumor model in nude mice. The note with it: in vivo and in vitro. The protocol:
as §1

The test system of assay [6] is lung cancer cell lines PC9, PC9GR and H1975. The experiment in a line: CCK-8 proliferation / cell death experiment. The assay is classed as cell-based. The protocol: as §1

For the compound `COc1cc2ncnc(Nc3ccc(F)c(Cl)c3)c2cc1OCCCC#[C][Au][PH]12CN3CN(CN(C3)C1)C2` [Embodiment 8], in assay [1], the intracellular mitochondrial damage entry was “induces intracellular mitochondrial damage” and the “intracellular oxidative stress level” value is “severely induces elevation of the intracellular oxidative stress level”. For the same compound, the ferroptosis result in assay [1] (Gefitinib-resistant lung cancer cells) is recorded as “resulting in ferroptosis”. In the assay on lung cancer cells [2], the “apoptosis of lung cancer cells (FIG. 2D)” value was “significantly promoted the apoptosis”. Besides, the “migration ability of lung cancer cells (FIG. 2C)” value in the assay with lung cancer cells [3] was “significantly inhibited the migration ability”. Moreover, on GPX4 protein, the GPX4 protein level result was “degrades GPX4 protein”. For the same compound, the “colony formation ability of lung cancer cells (FIG. 2B)” value in assay [4] was “significantly inhibits the colony formation ability”. The EGFR-related pathway activation result in the assay on EGFR-related pathway was “inhibits EGFR-related pathway activation”. For the same compound, the thioredoxin reductase activity entry in the assay on thioredoxin reductase is listed as “inhibits thioredoxin reductase activity”. Besides, the “performance compared with Gefitinib against drug-resistant tumors” value in [5] was “performs better than Gefitinib”. In assay [6] (CCK8), the “lung cancer cell death over time (FIG. 2A)” value was “induces lung cancer cell death in a time-dependent manner”. For the same compound, in assay [6] (CCK-8 and plate cloning, PC9, PC9GR, H1975), the inhibition of proliferation entry was “obvious effect on inhibiting proliferation”.
